# Measured values reported in PMC11620503 (Antimicrobial Agents and Chemotherapy, 2024).
# Columns and labels:
# [1] = test system: isolates of E. coli with NDM and PBP3 mutations; test: MIC, broth microdilution; assay type: cell-based; conditions: Escherichia coli, read-out: median MICs
# [2] = test system: A. baumannii CDC-83 (NDM-1, OXA-23, 69); test: MIC, broth microdilution; assay type: cell-based, Acinetobacter baumannii; conditions: agent alone
# [3] = test system: P. aeruginosa CDC-110 (VIM-2); test: MIC, broth microdilution; assay type: cell-based; conditions: Pseudomonas aeruginosa, agent alone
# [4] = test system: Acinetobacter baumannii (46); test: MIC, broth microdilution; assay type: cell-based
# [5] = test system: P. aeruginosa CDC-110 (VIM-2); test: Lethal mouse model of systemic infection; conditions: Pseudomonas aeruginosa, in Mus musculus, sc, read-out: ED50 of MEM (95% confidence intervals)
# [6] = test system: Enterobacterales (154), CDC AR Bank; test: MIC, broth microdilution; assay type: cell-based
# [7] = test system: Serine-carbapenemase-producing Enterobacterales (6); test: MIC and MBC testing; assay type: cell-based; conditions: 6 serine-carbapenemase-producing Enterobacterales; fixed BLI concentration (μg/mL) in label
# [8] = test system: Eggerthella lenta ATCC 43055; test: MIC, agar dilution, reference strains of anaerobic bacteria; assay type: cell-based; conditions: ATCC43055
# [9] = test system: Bacteroides ovatus KUB3009; test: as above; assay type: cell-based
# [10] = test system: Prevotella buccae KUB2992; test: as above; assay type: cell-based; conditions: Segatella buccae
# OXA-48 = OXA-48 (Klebsiella pneumoniae, UniProt Q6XEC0); test: Ki app determination (Waley's method)
# OXA-65 = OXA-65 (Acinetobacter baumannii, UniProt Q58XD3); test: Ki app determination (Waley's method)
# [11] = test system: Bacteroides thetaiotaomicron KUB2984; test: MIC, agar dilution, reference strains of anaerobic bacteria; assay type: cell-based
# [12] = test system: Propionibacterium acnes ATCC 11827; test: as above; assay type: cell-based; conditions: Cutibacterium acnes, ATCC11827
# NDM-6 = NDM-6 (Klebsiella pneumoniae, UniProt C7C422, A233V); test: Ki app determination (Waley's method)
# VIM-1 = VIM-1 (Pseudomonas aeruginosa, UniProt A0A0F7KYQ8); test: Ki app determination (Waley's method)
# [13] = test system: Prevotella melaninogenica KUB3005; test: MIC, agar dilution, reference strains of anaerobic bacteria; assay type: cell-based
# OXA-23 = OXA-23 (Acinetobacter baumannii, UniProt Q9L4P2); test: Ki app determination (Waley's method)
# KPC-38 = KPC-38 (Klebsiella pneumoniae, UniProt Q9F663); test: Ki app determination (Waley's method); conditions: read-out: Ki app, means from three independent studies
# [14] = test system: Finegoldia magna ATCC 29328; test: MIC, agar dilution, reference strains of anaerobic bacteria; assay type: cell-based; conditions: ATCC29328
# [15] = target: class A carbapenemase KPCs; test: Ki app determination, range over enzymes; conditions: read-out: Ki app values, range
# IMP-1 = IMP-1 (Serratia marcescens, UniProt P52699); test: Ki app determination (Waley's method)
# [16] = test system: 12 Gram-positive strains (including methicillin-sensitive staphylococci and streptococci); test: Intrinsic antibacterial activity, MIC; assay type: cell-based; conditions: KSP-1007 alone
# [17] = test system: Prevotella intermedia KUB2991; test: MIC, agar dilution, reference strains of anaerobic bacteria; assay type: cell-based
# OXA-66 = OXA-66 (Acinetobacter baumannii, UniProt Q58XD2); test: Ki app determination (Waley's method)
# SHV-2 = SHV-2 (Klebsiella pneumoniae, UniProt P0A9Z8); test: Ki app determination (Waley's method)
# [18] = test system: Bacteroides fragilis ATCC 25285; test: MIC, agar dilution, reference strains of anaerobic bacteria; assay type: cell-based; conditions: ATCC25285
# [19] = test system: Clostridioides difficile ATCC BAA-1803; test: as above; assay type: cell-based; conditions: ATCCBAA1803
# CTX-M-15 = CTX-M-15 (Escherichia coli, UniProt Q9EXV5); test: Ki app determination (Waley's method)
# Olsenella uli KUB3012 = test: MIC, agar dilution, reference strains of anaerobic bacteria; assay type: cell-based
# [20] = test system: Bacteroides thetaiotaomicron ATCC 29741; test: as above; assay type: cell-based; conditions: ATCC29741
# [21] = test system: Prevotella histicola KUB2989; test: as above; assay type: cell-based
# [22] = test system: Peptoniphilus asaccharolyticus ATCC 14963; test: as above; assay type: cell-based; conditions: ATCC14963
# [23] = CLSI breakpoints, marked c: breakpoints for β-lactam alone
# [24] = fixed concentration (μg/mL) in label
# Chain of KPC-38 (Q9F663 25-293 limits assumed): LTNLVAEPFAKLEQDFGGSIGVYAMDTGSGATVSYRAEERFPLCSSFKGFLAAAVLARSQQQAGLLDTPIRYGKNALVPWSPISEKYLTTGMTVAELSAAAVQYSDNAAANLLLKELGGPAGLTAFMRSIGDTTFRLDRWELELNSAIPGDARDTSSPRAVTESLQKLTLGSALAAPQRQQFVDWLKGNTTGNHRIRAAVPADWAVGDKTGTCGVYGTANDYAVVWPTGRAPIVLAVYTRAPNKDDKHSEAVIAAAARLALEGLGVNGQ
# Chain of IMP-1 (P52699 19-246, looked up, species assumed): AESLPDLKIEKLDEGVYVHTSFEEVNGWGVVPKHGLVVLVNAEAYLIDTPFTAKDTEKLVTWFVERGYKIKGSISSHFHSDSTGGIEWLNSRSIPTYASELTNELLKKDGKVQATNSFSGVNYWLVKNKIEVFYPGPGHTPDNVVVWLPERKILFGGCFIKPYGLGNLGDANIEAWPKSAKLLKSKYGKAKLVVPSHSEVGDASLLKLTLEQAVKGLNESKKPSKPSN
# Chain of SHV-2 (P0A9Z8 22-286): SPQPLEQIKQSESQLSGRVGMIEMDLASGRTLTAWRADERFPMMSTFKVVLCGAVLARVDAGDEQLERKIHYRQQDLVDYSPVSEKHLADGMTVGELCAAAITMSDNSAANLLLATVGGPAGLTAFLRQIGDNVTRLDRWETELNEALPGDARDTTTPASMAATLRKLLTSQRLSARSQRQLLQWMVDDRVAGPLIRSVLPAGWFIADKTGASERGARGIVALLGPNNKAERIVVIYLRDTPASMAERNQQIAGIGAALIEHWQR
# Chain of OXA-48 (Q6XEC0 23-265, looked up, species assumed): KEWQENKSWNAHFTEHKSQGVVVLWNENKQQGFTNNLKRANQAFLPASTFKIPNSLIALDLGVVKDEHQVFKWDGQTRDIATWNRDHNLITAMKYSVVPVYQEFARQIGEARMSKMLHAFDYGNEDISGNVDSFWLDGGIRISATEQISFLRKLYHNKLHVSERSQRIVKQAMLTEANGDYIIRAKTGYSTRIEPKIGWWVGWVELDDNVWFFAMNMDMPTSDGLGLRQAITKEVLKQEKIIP
# Chain of OXA-65 (Q58XD3 entry or part of it): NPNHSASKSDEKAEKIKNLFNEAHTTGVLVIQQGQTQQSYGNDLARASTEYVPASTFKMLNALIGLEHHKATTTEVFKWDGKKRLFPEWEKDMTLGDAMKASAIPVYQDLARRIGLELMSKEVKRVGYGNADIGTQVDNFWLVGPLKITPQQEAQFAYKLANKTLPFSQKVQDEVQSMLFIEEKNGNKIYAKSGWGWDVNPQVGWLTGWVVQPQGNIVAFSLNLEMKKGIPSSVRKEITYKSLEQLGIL
# Chain of CTX-M-15 (Q9EXV5 29-291, species assumed): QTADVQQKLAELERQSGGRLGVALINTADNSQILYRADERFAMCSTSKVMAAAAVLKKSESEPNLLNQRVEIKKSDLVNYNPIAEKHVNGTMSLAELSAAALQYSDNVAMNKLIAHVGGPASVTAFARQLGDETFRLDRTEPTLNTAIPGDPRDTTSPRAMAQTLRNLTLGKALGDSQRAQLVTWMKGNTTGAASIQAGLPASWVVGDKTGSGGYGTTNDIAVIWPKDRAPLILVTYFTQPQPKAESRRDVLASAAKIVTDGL
# Chain of NDM-6 (C7C422 29-270 A233V): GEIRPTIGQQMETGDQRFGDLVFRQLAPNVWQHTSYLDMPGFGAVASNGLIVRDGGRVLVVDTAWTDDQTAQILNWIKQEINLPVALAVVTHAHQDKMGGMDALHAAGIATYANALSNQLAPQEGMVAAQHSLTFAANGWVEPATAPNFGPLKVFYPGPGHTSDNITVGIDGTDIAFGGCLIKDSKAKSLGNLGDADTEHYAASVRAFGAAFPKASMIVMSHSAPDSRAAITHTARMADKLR
# Chain of OXA-23 (Q9L4P2 18-273): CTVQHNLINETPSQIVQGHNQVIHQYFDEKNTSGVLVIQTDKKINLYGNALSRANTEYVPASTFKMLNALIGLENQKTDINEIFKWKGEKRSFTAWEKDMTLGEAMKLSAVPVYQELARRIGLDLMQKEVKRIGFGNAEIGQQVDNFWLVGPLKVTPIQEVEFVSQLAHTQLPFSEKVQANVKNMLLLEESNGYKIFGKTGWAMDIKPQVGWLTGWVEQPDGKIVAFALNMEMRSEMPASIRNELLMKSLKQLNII
# Chain of OXA-66 (Q58XD2 entry or part of it): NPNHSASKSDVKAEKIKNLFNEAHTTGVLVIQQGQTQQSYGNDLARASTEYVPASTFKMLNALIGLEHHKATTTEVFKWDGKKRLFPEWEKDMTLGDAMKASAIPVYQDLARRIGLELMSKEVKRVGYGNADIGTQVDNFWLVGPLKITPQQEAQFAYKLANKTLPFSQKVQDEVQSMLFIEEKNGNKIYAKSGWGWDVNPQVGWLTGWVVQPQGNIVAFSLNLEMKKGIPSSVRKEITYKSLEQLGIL
compound,measurement,setting,value
"CC(C)(O/N=C(\C(=O)N[C@@H]1C(=O)N2C(C(=O)[O-])=C(C[N+]3(CCNC(=O)c4ccc(O)c(O)c4Cl)CCCC3)CS[C@H]12)c1csc(N)n1)C(=O)O [FDC, cefiderocol]",MIC,[1],4 µg/mL
same,MIC,[2],16 µg/mL
"C[C@@H](O)[C@H]1C(=O)N2C(C(=O)O)=C(S[C@@H]3CN[C@H](C(=O)N(C)C)C3)[C@H](C)[C@H]12 [MEM, meropenem]",MIC,[3],64 µg/mL
same,CLSI MIC interpretation I (intermediate),[4]; [23],0%
same,CLSI MIC interpretation R (resistant),[4]; [23],100%
same,CLSI MIC interpretation S (susceptible),[4]; [23],0%
same,MIC50,[4]; [24],32 µg/mL
same,ED50,[5],218 mg/kg
same,CLSI MIC interpretation I (intermediate),[6]; [23],9.7%
same,CLSI MIC interpretation R (resistant),[6]; [23],50%
same,CLSI MIC interpretation S (susceptible),[6]; [23],40.3%
same,MIC50,[6]; [24],2 µg/mL
same,MIC90,[6]; [24],32 µg/mL
same,MIC Range,[7],1 to 64 µg/mL
"N[C@@H](C(=O)N1CC(Oc2ccc3c(c2C(=O)O)OB(O)CC3)C1)c1c[nH]cn1 [KSP-1007, 7-({1-[(2R)-2-amino-2-(1H-imidazol-4-yl)acetyl]azetidin-3-yl}oxy)-2-hydroxy-3,4-dihydro-2H-1,2-benzoxaborinine-8-carboxylic acid]",MIC,[8],> 256 µg/mL
same,MIC,[9],128 µg/mL
same,MIC,[10],8 µg/mL
same,Ki,OXA-48,0.861 ± 0.0767 nM
same,Ki,OXA-65,5.44 ± 1.21 nM
same,MIC,[11],32 µg/mL
same,MIC,[12],32 µg/mL
same,Ki,NDM-6,1050 nM
same,Ki,VIM-1,350 ± 45.4 nM
same,MIC,[13],4 µg/mL
same,Ki,OXA-23,4.07 ± 0.237 nM
same,Ki,KPC-38,0.836 ± 0.414 nM
same,MIC,[14],128 µg/mL
same,Ki,[15],0.836 to 2.19 nM
same,Ki,IMP-1,512 ± 119 nM
same,"MICs, range",[16],0.25 to 8 µg/mL
same,MIC,[17],4 µg/mL
same,Ki,OXA-66,5.78 ± 0.654 nM
same,Ki,SHV-2,361 ± 127 nM
same,MIC,[18],8 µg/mL
same,MIC,[19],> 256 µg/mL
same,Ki,CTX-M-15,0.0664 ± 0.015 nM
same,MIC,Olsenella uli KUB3012,64 µg/mL
same,MIC,[20],64 µg/mL
same,MIC,[21],8 µg/mL
same,MIC,[22],32 µg/mL
